PMC3511023, “Peptides presenting the binding site of human CD4 for the HIV-1 envelope glycoprotein gp120” (Beilstein Journal of Organic Chemistry, 2012)
“Also recorded” adds a separate entry of the source. Bridges are numbered along the chain shown (N, C = ends). Where no end group is shown, it is not given here. [ ]: non-standard residue; d: D form.

test system: gp120(MN); test: not given; conditions: CD4-M5 60 µM or sCD4 0.4 µg/mL pre-incubated 10 min with gp120(MN) 0.5 µg/mL; 2 h on X5-coated plate; absorbance at 492 nm; at least twice, each in duplicate

Substance	enhancement of binding of gp120(MN) to the CD4i antibody X5
CD4-M5: CD4 residues 34–48, cyclic through a disulfide between added cysteines (His6-CIKILGNQGSFLTKGPC; disulfide 1-17 (inferred))	able to enhance binding of gp120 to the CD4i antibody mAb X5

test system: recombinant gp120 from HIV-1 strain IIIB; test: Direct ELISA: binding of gp120 to His-tagged peptides on Ni-chelate plates; conditions: peptide coated at 4 µM on Ni-chelate plates; gp120(IIIB) 0.25 µg/mL, 2 h; absorbance at 492 nm, blank-corrected; Ar relative to CD4-M1 = 1; at least twice, each in duplicate
Protocol: Antibody buffer: Phosphate buffer pH 7.2 containing 1% BSA and 0.1% Tween 20. The wells of 96-well Ni-Chelate plates from Thermo Scientific were coated overnight at 4 °C with peptide solution (100 µL, 4 µM in coupling buffer). After unspecific binding had been blocked with a blocking buffer (1 h at room temperature, gentle agitation), the plates were washed twice. Plates were then incubated for 2 h with 100 µL/well gp120(IIIB) from ImmunoDiagnostics at 0.25 µg/mL (Figure 3, left), or in serial dilutions starting at 2 µg/mL (Figure 3, right) in sample buffer, and washed four times. Following incubation with 100 µL/well sheep-anti-HIV-1-gp120 (D7324) from Aalto Bio Reagents (1:5000 in antibody buffer) for 1 h at room temperature, plates were washed four times with washing buffer, incubated for 1 h at room temperature with 100 µL/well rabbit-anti-sheep-IgG peroxidase conjugate from Dianova (diluted 1:5000 with antibody buffer), and washed four times with washing buffer. Plates were developed with 100 µL/well substrate solution (1 mg/mL OPD in 0.03% H2O2/H2O) in the dark (approx. 20 min), and the reaction was stopped by addition of 2 M sulfuric acid (50 µL/well). Absorbances (A) were read at 492 nm by using a multichannel photometer (Infinite F200 from Tecan).
Relative Affinities (Ar) were calculated according to the following formula:
Ar = (Apeptide – Ablank) / (A1– Ablank)

Substance	binding to gp120(IIIB) (relative affinity Ar)
CD4-M5: CD4 residues 34–48, cyclic through a disulfide between added cysteines (His6-CIKILGNQGSFLTKGPC; disulfide 1-17 (inferred))	strongly enhanced
CD4-M6: CD4 residues 34–48, cyclic, F43A	largely abrogated
CD4-M4: His6-tagged linear peptide presenting the CDR2-like loop of CD4, residues 34–48 (His6-IKILGNQGSFLTKGP)	only the longer peptide CD4-M1 is recognized by gp120
CD4-M1: His6-tagged linear peptide presenting CD4 residues 22–64	is recognized by gp120
CD4-M7: CD4 residues 34–48, cyclic, F43-D-Phe (His6-CIKILGNQGS[dF]LTKGPC; disulfide 1-17 (inferred))	did not bind to gp120
CD4-M2: His6-tagged cyclic (disulfide) peptide, CD4 residues 22–64, S23C, D63C	strongly enhanced
CD4-M3: CD4 residues 22–64, cyclic, F43A, R58A, R59A, S23C, D63C	largely abrogated; also recorded: complete loss of binding
